Assay results from patent US10081624B2, “Heterocyclic compound” (Takeda Pharmaceutical Company Limited, priority 2014, dated 2018).

Legend:
HDAC6 enzyme = molecular target: T1, HDAC6 enzyme (Homo sapiens, UniProt Q9UBN7); assay: HDAC6 enzyme inhibitory assay (HDAC-Glo I/II Assay kit); format: biochemical; details: 1 μM test compound; read-out: HDAC6 inhibitory rate (%) (1 μM)
T1 construct: prepared by transducing full length HDAC1 and HDAC6 genes into Sf-9 insect cells; GST; purchased SignalChem; host or cells: Sf-9 insect cells
T1 sequence (Q9UBN7 1-1215): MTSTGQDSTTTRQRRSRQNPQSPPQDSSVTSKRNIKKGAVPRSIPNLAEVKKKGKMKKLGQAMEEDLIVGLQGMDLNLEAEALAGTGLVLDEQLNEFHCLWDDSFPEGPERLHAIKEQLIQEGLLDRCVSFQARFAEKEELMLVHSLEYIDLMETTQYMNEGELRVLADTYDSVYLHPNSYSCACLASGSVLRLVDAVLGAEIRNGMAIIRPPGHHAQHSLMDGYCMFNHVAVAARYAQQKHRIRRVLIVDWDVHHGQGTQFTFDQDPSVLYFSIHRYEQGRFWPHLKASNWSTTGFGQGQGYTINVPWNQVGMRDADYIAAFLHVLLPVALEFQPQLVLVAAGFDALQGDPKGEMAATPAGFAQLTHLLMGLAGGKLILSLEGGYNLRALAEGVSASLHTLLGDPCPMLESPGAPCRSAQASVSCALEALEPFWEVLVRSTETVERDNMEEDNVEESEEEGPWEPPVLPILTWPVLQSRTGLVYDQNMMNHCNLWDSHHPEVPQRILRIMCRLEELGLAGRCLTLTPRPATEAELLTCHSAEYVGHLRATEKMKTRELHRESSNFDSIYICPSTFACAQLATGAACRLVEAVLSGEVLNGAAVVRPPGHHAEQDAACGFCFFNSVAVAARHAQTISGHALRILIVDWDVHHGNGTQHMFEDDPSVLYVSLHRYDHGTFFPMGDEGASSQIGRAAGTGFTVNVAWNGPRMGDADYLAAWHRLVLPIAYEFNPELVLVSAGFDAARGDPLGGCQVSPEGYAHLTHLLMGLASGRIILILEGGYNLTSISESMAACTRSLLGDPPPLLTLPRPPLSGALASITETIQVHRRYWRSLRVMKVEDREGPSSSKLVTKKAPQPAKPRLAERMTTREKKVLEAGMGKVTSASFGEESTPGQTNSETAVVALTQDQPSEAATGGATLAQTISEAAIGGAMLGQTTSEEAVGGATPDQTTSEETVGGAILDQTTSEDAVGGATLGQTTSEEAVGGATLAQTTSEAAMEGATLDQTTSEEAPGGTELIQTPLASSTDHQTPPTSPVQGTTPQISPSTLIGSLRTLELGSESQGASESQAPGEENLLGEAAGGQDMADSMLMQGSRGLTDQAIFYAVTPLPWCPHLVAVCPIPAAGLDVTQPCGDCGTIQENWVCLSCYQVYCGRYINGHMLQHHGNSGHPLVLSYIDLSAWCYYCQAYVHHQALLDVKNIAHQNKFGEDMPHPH
Procedure, shortened: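 Sf-9-expressed GST-purified full-length HDAC1/HDAC6; cpd + enzyme 60 min RT, 24 mM Tris-HCl pH 7.5, 135 mM NaCl, 0.6 mM glutathione, 0.01% Tween-20; substrate-developer 20 min RT; luminescence; no-enzyme wells = 100% inhibition.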

HDAC1 enzyme = molecular target: T2, HDAC1 enzyme (Homo sapiens, UniProt Q13547); assay: HDAC1 enzyme inhibitory assay (HDAC-Glo I/II Assay kit); format: biochemical; details: 1 μM test compound; read-out: HDAC1 inhibitory rate (%) (1 μM)
T2 construct: prepared by transducing full length HDAC1 and HDAC6 genes into Sf-9 insect cells; GST; purchased SignalChem; host or cells: Sf-9 insect cells
T2 sequence (Q13547 whole entry): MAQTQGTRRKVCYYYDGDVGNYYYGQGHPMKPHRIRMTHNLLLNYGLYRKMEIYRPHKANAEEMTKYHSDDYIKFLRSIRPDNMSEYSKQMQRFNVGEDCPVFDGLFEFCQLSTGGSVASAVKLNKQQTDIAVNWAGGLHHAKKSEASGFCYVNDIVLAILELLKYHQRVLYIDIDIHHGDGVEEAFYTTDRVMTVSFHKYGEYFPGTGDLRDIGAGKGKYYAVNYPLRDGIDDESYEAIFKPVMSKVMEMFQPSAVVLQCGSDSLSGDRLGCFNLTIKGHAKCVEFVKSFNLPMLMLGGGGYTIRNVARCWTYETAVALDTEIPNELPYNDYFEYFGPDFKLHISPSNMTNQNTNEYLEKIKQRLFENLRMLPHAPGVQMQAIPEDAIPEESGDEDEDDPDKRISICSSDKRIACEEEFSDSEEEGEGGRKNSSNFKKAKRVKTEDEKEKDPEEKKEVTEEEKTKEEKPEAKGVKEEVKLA
Procedure: HDAC1 enzyme and HDAC6 enzyme each prepared by transducing full length HDAC1 and HDAC6 genes into Sf-9 insect cells and purifying by GST affinity column were purchased from SignalChem. Using these enzymes, HDAC1 and/or HDAC6 enzyme inhibitory activities of the compound of the present invention were evaluated. Enzymes were used after preserved at −70° C. HDAC1 or HDAC6 enzyme inhibitory activity of the compound of the present invention was measured using HDAC-Glo™ I/II Assay kit (Promega) according to the following experimental method. The test compound diluted with assay buffer (24 mM Tris-HCl (pH 7.5), 1 mM MgCl2, 0.35 mM KCl, 135 mM NaCl, 0.6 mM Glutathione, 0.01% Tween-20) was added to a 384-well plate by each 2 μL. Then, HDAC1 or HDAC6 enzyme solution diluted with assay buffer was added thereto by each 4 μL, and the plate was incubated at room temperature for 60 min. After incubated, HDAC substrate-Developer solution prepared according to Promega protocol attached to the assay kit was added to the 384-well plate by each 2 μL, and the enzyme reaction was started. After reacting at room temperature for 20 min, luminescence level was measured using plate reader Envision (PerkinElmer). The inhibitory activity of each compound was calculated as a relative activity value when luminescence level in wells without enzyme is considered as 100% inhibition.

| Structure (SMILES) | inhibition at 1 µM (HDAC6 enzyme) | inhibition at 1 µM (HDAC1 enzyme) |
| --- | --- | --- |
| Cc1ccc(C(=O)N2CCOC[C@H]2CNC(=O)c2ccc(-c3noc(C(F)(F)F)n3)cc2)s1 [Example 144, N-(((3R)-4-((5-methyl-2-thienyl)carbonyl)morpholin-3-yl)methyl)-4-(5-(trifluoromethyl)-1,2,4-oxadiazol-3-yl)benzamide] | 96% | 14% |
| O=C(NC[C@H]1COCCN1C(=O)C1(c2ccccc2)CC1)c1ccc(-c2noc(C(F)(F)F)n2)cc1 [Example 56, N-(((3S)-4-((1-phenylcyclopropyl)carbonyl)morpholin-3-yl)methyl)-4-(5-(trifluoromethyl)-1,2,4-oxadiazol-3-yl)benzamide] | 97% | 16% |
| O=C(NC[C@H]1COCCN1C(=O)C(F)(F)c1ccccc1)c1ccc(-c2noc(C(F)(F)F)n2)cn1 [Example 207, N-(((3S)-4-(difluoro(phenyl)acetyl)morpholin-3-yl)methyl)-5-(5-(trifluoromethyl)-1,2,4-oxadiazol-3-yl)pyridine-2-carboxamide] | 99% | 41% |
| O=C(NC[C@@H]1COCCN1C(=O)c1ccno1)c1ccc(-c2noc(C(F)(F)F)n2)cc1 [Example 133, N-(((3R)-4-(1,2-oxazol-5-ylcarbonyl)morpholin-3-yl)methyl)-4-(5-(trifluoromethyl)-1,2,4-oxadiazol-3-yl)benzamide] | 96% | 6% |
| Cn1nc2ccccc2c1C(=O)N1CCOC[C@@H]1CNC(=O)c1ccc(-c2noc(C(F)(F)F)n2)cc1 [Example 82, N-(((3S)-4-((2-methyl-2H-indazol-3-yl)carbonyl)morpholin-3-yl)methyl)-4-(5-(trifluoromethyl)-1,2,4-oxadiazol-3-yl)benzamide] | 101% | 60% |
| O=C(NCC1COCCN1C(=O)N1CCCC1)c1ccc(-c2noc(C(F)(F)F)n2)cc1 (stereo in doubt) [Example 100, N-(((3S)-4-(pyrrolidin-1-ylcarbonyl)morpholin-3-yl)methyl)-4-(5-(trifluoromethyl)-1,2,4-oxadiazol-3-yl)benzamide] | 97% | 6% |
| O=C(NCC1COCCN1C(=O)c1ccccc1)c1ccc(-c2noc(C(F)(F)F)n2)cc1 (stereo in doubt) [Example 111, N-(((3R)-4-benzoylmorpholin-3-yl)methyl)-4-(5-(trifluoromethyl)-1,2,4-oxadiazol-3-yl)benzamide] | 101% | 21% |
| O=C(NC[C@@H]1COCCN1C(=O)C1CCCCC1)c1ccc(-c2noc(C(F)(F)F)n2)cc1 [Example 152, N-(((3R)-4-(cyclohexylcarbonyl)morpholin-3-yl)methyl)-4-(5-(trifluoromethyl)-1,2,4-oxadiazol-3-yl)benzamide] | 99% | 20% |
| Cc1nonc1C(=O)N1CCOC[C@H]1CNC(=O)c1ccc(-c2noc(C(F)(F)F)n2)cc1 [Example 132, N-(((3R)-4-((4-methyl-1,2,5-oxadiazol-3-yl)carbonyl)morpholin-3-yl)methyl)-4-(5-(trifluoromethyl)-1,2,4-oxadiazol-3-yl)benzamide] | 98% | 16% |
| Cc1noc(C)c1C(=O)N1CCOC[C@@H]1CNC(=O)c1ccc(-c2noc(C(F)(F)F)n2)cc1 [Example 88, N-(((3S)-4-((3,5-dimethyl-1,2-oxazol-4-yl)carbonyl)morpholin-3-yl)methyl)-4-(5-(trifluoromethyl)-1,2,4-oxadiazol-3-yl)benzamide] | 100% | 38% |
| O=C(NCC1COCCN1C(=O)c1ccc(Cl)cc1)c1ccc(-c2noc(C(F)(F)F)n2)cc1 (stereo not shown) [Example 8] | 97% | 33% |
| O=C(NC[C@H]1COCCN1C(=O)N1CC2C(C1)C2(F)F)c1ccc(-c2noc(C(F)(F)F)n2)cc1 (stereo partly drawn) [Example 309, N-(((3S)-4-((6,6-difluoro-3-azabicyclo[3.1.0]hex-3-yl)carbonyl)morpholin-3-yl)methyl)-4-(5-(trifluoromethyl)-1,2,4-oxadiazol-3-yl)benzamide] | 96% | 4% |
| O=C(NC[C@H]1COCCN1C(=O)C1CCCC1)c1ccc(-c2noc(C(F)(F)F)n2)cc1 [Example 77, N-(((3S)-4-(cyclopentylcarbonyl)morpholin-3-yl)methyl)-4-(5-(trifluoromethyl)-1,2,4-oxadiazol-3-yl)benzamide] | 98% | 18% |
| Cc1nnsc1C(=O)N1CCOCC1CNC(=O)c1ccc(-c2noc(C(F)(F)F)n2)s1 (stereo not shown) [Example 237, N-((4-((4-methyl-1,2,3-thiadiazol-5-yl)carbonyl)morpholin-3-yl)methyl)-5-(5-(trifluoromethyl)-1,2,4-oxadiazol-3-yl)thiophene-2-carboxamide] | 98% | 27% |
| O=C(NC[C@H]1COCCN1C(=O)N1CCCOCC1)c1ccc(-c2noc(C(F)(F)F)n2)cc1 [Example 290, N-(((3S)-4-(1,4-oxazepan-4-ylcarbonyl)morpholin-3-yl)methyl)-4-(5-(trifluoromethyl)-1,2,4-oxadiazol-3-yl)benzamide] | 97% | 3% |
| Cn1nccc1C(=O)N1CCCC[C@@H]1CNC(=O)c1ccc(-c2noc(C(F)(F)F)n2)cc1 [Example 164, N-(((2R)-1-((1-methyl-1H-pyrazol-5-yl)carbonyl)piperidin-2-yl)methyl)-4-(5-(trifluoromethyl)-1,2,4-oxadiazol-3-yl)benzamide] | 98% | 17% |
| O=C(NCC1COCCN1C(=O)C1CCc2ccccc2O1)c1ccc(-c2noc(C(F)(F)F)n2)cc1 (stereo not shown) [Example 35, N-((4-(3,4-dihydro-2H-chromen-2-ylcarbonyl)morpholin-3-yl)methyl)-4-(5-(trifluoromethyl)-1,2,4-oxadiazol-3-yl)benzamide] | 92% | 30% |
| Cn1nc2ccccc2c1C(=O)N1CCOC[C@H]1CNC(=O)c1ccc(-c2noc(C(F)(F)F)n2)cc1 [Example 157, N-(((3R)-4-((2-methyl-2H-indazol-3-yl)carbonyl)morpholin-3-yl)methyl)-4-(5-(trifluoromethyl)-1,2,4-oxadiazol-3-yl)benzamide] | 92% | 31% |
| O=C(NC[C@H]1COCCN1C(=O)C1CCc2ccccc2O1)c1ccc(-c2noc(C(F)(F)F)n2)cc1 (stereo partly drawn) [Example 52, N-(((3S)-4-(3,4-dihydro-2H-chromen-2-ylcarbonyl)morpholin-3-yl)methyl)-4-(5-(trifluoromethyl)-1,2,4-oxadiazol-3-yl)benzamide] | 97% | 18% |
| CC(C)(C(=O)N1CCOC[C@@H]1CNC(=O)c1ccc(-c2noc(C(F)(F)F)n2)s1)c1ccccc1 [Example 263, N-(((3S)-4-(2-methyl-2-phenylpropanoyl)morpholin-3-yl)methyl)-5-(5-(trifluoromethyl)-1,2,4-oxadiazol-3-yl)thiophene-2-carboxamide] | 99% | 32% |
